Reference: patent US20240130988A1, “Use of stilbene compounds in the preparation of anti-tumor drugs” (Guangzhou AnHao Pharmaceutical Technology CO., LTD., priority 2022, published 2024)
Like-named read-outs stand apart in the source and are kept apart here. Marks after values point to notes of the source that are not given here.

Assays:
[1] = system: human liver cancer QGY7703; experiment: Human liver cancer QGY7703 transplanted tumor in nude mice; assay type: in vivo, BALB/C nude mice; parameters: key to RTV (d 18): RTV = Vt/Vo, tumor volume relative to volume at grouping (d1); details: for inhibition in vivo at 100 mg/kg: Mus musculus, read-out: Tumor inhibitory rate %
Experimental: A human liver cancer QGY7703 model transplanted into nude mice was used in the experiment to investigate the anti-tumor effect of test compounds. The mice were intravenously injected at a dosage of 100 mg/kg for 14 days, and the tumor inhibition rate against human liver cancer QGY7703 was measured.
(§1) Preparation: The compound was prepared as the injection at the desired concentration with sterile normal saline, prior to administration.
Animal strain: BALB/C nude mice (SPF grade), weight: 19-21 g, gender: male. Number of animals in each treatment group: 8; number of animals in the control group: >12.
(§2) The tumor blocks of human liver cancer QGY7703 with good growth were cut into uniform small pieces of 3 mm under sterile conditions, and then subcutaneously inoculated into the right armpit of each mouse with a cannula. These mice were divided into 9 groups, 8 mice for each treatment group, while more than 12 mice were included in the control group.
(§3) 14 days after inoculation, the average volume of the tumor block was about 100 mm^3. The animals were regrouped based on the size of the tumor, and the animals with tumors that were too large and too small were sifted out. For each group, the average volume of tumors was basically the same, and then the mice were initially treated with test compounds. The mice in the treatment groups were intravenously injected once a day for 14 days, at a dosage of 0.1 mL/20 g body weight; the mice in the control group were given the same volume of sterile normal saline. From the 14th day of inoculation, the long diameter a (mm) of the tumor, together with the perpendicular short diameter b (mm), was measured using a digital electronic caliper, twice a week. The calculation formula of tumor volume is: TV=ab^2/2, and the formula for calculating the relative tumor volume is RTV=Vt/Vo, wherein Vo denotes the tumor volume measured when the mice were divided into groups (i.e. d1), and Vt is the tumor volume from each measurement.
(§4) The result determination is based on the following formula: […]

[2] = system: human renal cell carcinoma AGHN; experiment: Human renal cell carcinoma AGHN transplanted tumor in nude mice; assay type: in vivo, BALB/C nude mice
Experimental: A human renal cell carcinoma AGHN model transplanted into nude mice was used in the experiment to investigate the anti-tumor effect of test compounds. […] AGHN was measured.
as §1
Animal strain: BALB/C, nude mice (SPF grade), weight: 19-21 g, gender: male. Number of animals in each treatment group: 8; number of animals in the control group: >12.
as §2, with “renal cell carcinoma AGHN” for “liver cancer QGY7703”, “The” for “These”, “>12” for “more than 12”
as §3, with “about 100 mm^3, The animals” for “about 100 mm^3. The animals”, “The mice were intraperitoneally” for “The mice in the treatment groups were intravenously”, “mice were intraperitoneally injected once” for “groups were intravenously injected once”, “dosage of 0.2 mL/20 g” for “dosage of 0.1 mL/20 g”, “tumor volume is: RTV=Vt/Vo, wherein” for “tumor volume is RTV=Vt/Vo, wherein”, “and Vt denotes the tumor” for “and Vt is the tumor”
as §4

[3] = system: LLC (mouse lung cancer cells); experiment: Enrichment of CD8+ cytotoxic T lymphocytes in tumor tissue, Lewis non-small cell lung cancer model of mice; assay type: in vivo; details: 400 mg/kg ip once a day for 10 days, CD8+ immunohistochemistry
[4] = system: Lewis non-small cell lung cancer; experiment: Compound 11 combined with PD-L1, Lewis non-small cell lung cancer model in mice; assay type: in vivo, C57BL/6 mice; details: ip: PD-L1 10 mg/kg, compound 11 200 mg/kg, combination 10 + 200
Text: Experimental method: The model of transplant tumor in C57BL/6 mice was established by subcutaneously inoculating Lewis non-small cell lung cancer cell lines into the armpits of C57BL/6 mice. Cells were inoculated in an amount of 1×10^6, and after formation of the transplanted tumors by inoculation, the cells were passed 3 generations in C57BL/6 mice before use. The vigorous growth of tumor tissue was cut into approximate 1.5 mm^3, and homogenized under sterile conditions, to prepare 1×10^7/mL of cell suspension. 0.1 mL of cell suspension was subcutaneously inoculated into the right armpit of C57BL/6 mice. For transplanted tumors in C57BL/6 mice, the diameter was measured with vernier caliper. After the tumor grew to 100 mm^3, the animals were randomly divided into groups, with 6 mice in each group. […] The measurement frequency of tumor diameter was once every three days. The dosage by volume was 0.1 mL/20 g. The mice in the negative control group were given an equal amount of physiological saline by intravenous injection.
The effect of combined medicaments was evaluated based on the Q value calculated by Jin's formula: […]
(§5) Ea+b represents the tumor inhibitory rate of the combined medicaments, while Ea and Eb represent the tumor inhibitory rates of medicament A and medicament B, respectively.

[5] = system: human gastric cancer SGC7901; experiment: Compound 6 combined with paclitaxel, human gastric cancer SGC7901 xenograft in nude mice; assay type: in vivo; details: paclitaxel 10 mg/kg iv, compound 6 200 mg/kg ip, combination 10 + 200
Text: Experimental method: The model of human gastric cancer SGC7901 transplant tumor in nude mice was established by subcutaneously inoculating human gastric cancer SGC7901 cell lines into the armpits of nude mice. Cells were inoculated in an amount of 1×10^6, and after formation of the transplanted tumors by inoculation, the cells were passed 3 generations in nude mice before use. The vigorous growth of tumor tissue was cut into approximate 1.5 mm^3, and homogenized under sterile conditions, to prepare 1×10^7/mL of cell suspension. 0.1 mL of cell suspension was subcutaneously inoculated into the right armpit of nude mice. For transplanted tumors in nude mice, the diameter was measured with vernier caliper. After the tumor grew to 100 mm^3, the animals were randomly divided into groups, with 6 mice in each group. […] The measurement frequency of tumor diameter was once every three days. The dosage by volume was 0.1 mL/20 g. The mice in the negative control group were given an equal amount of physiological saline by intravenous injection. The effect of combined medicaments was evaluated based on the Q value calculated by Jin's formula: […]
as §5

[6] = QGY-7703, QGY7703, 100 mg/kg iv × 14

Row | Structure (SMILES) | RTV (d 18) ([1]; QGY7703, 100 mg/kg iv × 14) | RTV (d 18) ([2]; 200 mg/kg ip × 14) | Tumor inhibitory rate % ([2]; 200 mg/kg ip × 14) | The ratio of distribution area in tumor tissues (%) [3] [%] | inhibition in vivo at 100 mg/kg ([1]; QGY-7703, iv) [%] | other results
1 | COc1ccc(/C=C(/C(=O)O)c2cc(OC)c(OC)c(OC)c2)c(F)c1O [Compound 9, (E)-3-(2-fluoro-3-hydroxy-4-methoxyphenyl)-2-(3,4,5-trimethoxyphenyl)acrylic acid] | 4.67 ± 0.58 | 5.12 ± 0.77 | 62.87^# % | 6.258 ± 0.6573 | – | inhibition in vivo at 100 mg/kg [1, 6]: 63.7%
2 | COc1cc(/C=C(/C(=O)O)c2cc(OC)c(OC)c(OC)c2)cc(OC)c1 [Compound 3, (E)-3-(3,5-dimethoxyphenyl)-2-(3,4,5-trimethoxyphenyl)acrylic acid] | 4.67 ± 0.63 | 5.47 ± 0.82 | 60.33^# % | – | 63.7 | –
3 | COc1cc(/C=C(/C(=O)[O-])c2cc(OC)c(OC)c(OC)c2)cc(OC)c1F.[K+] [Compound 10] | 4.98 ± 0.72 | – | – | – | 61.3 | –
4 | COc1cc(/C(=C\c2cc(O)c(OC)c(F)c2)C(=O)O)cc(OC)c1OC [Compound 8, (E)-3-(5-fluoro-3-hydroxy-4-methoxyphenyl)-2-(3,4,5-trimethoxyphenyl)acrylic acid] | – | 6.22 ± 0.63 | 54.89^## % | 6.543 ± 0.7256 | – | –
5 | COc1ccc(/C=C(/C(=O)O)c2cc(OC)c(OC)c(OC)c2)cc1F [Compound 4, (E)-3-(3-fluoro-4-methoxyphenyl)-2-(3,4,5-trimethoxyphenyl)acrylic acid] | 5.11 ± 0.76 | 4.31 ± 0.58 | – | – | 60.3 | Tumor inhibitory rate % ([2]; 200 mg/kg ip × 14, 200 mg/kg): 68.75%; Tumor inhibitory rate % ([2]; 200 mg/kg ip × 14, listed as compound 4, 200 mg/kg): best inhibitory effect on renal cell carcinoma
6 | COc1cc(/C(=C\c2cc(O)c(OC)c(O)c2)C(=O)O)cc(OC)c1OC [Compound 11, (E)-3-(3,5-dihydroxy-4-methoxyphenyl)-2-(3,4,5-trimethoxyphenyl)acrylic acid] | – | – | – | 5.735 ± 0.5952 | – | RTV (d 18) [4]: 7.62 ± 2.28; Terminal weight [4]: 23.1 ± 0.9 g; Tumor inhibitory rate % [4]: 48.76%
7 | COc1ccc(/C=C(/C(=O)O)c2cc(OC)c(OC)c(OC)c2)c(O)c1O [Compound 1, (E)-3-(2,3-dihydroxy-4-methoxyphenyl)-2-(3,4,5-trimethoxylphenyl)acrylic acid] | – | 6.31 ± 0.91 | 54.24^## % | – | – | The ratio of distribution area in tumor tissues (%) ([3]; 400 mg/kg): 6.265 ± 0.3673%
8 | COc1ccc(/C=C(/C(=O)O)c2cc(OC)c(OC)c(OC)c2)cc1O [Compound 6, (E)-3-(3-hydroxy-4-methoxyphenyl)-2-(3,4,5-trimethoxyphenyl)acrylic acid] | 3.65 ± 0.47 | 6.53 ± 0.85 | 52.64^## % | 7.249 ± 0.6689 | – | inhibition in vivo at 100 mg/kg [1, 6]: 71.6%; Tumor inhibitory rate % ([1]; QGY7703, 100 mg/kg iv × 14): best inhibitory effect on liver cancer; RTV (d 21) [5]: 6.21 ± 1.88; Terminal weight [5]: 22.9 ± 1.2 g; Tumor inhibitory rate % [5]: 54.07%
